2 molecules from patent US20030134303A1, “Adenine nucleotide-binding protein-directed probes, and methods of their synthesis and use” (ActivX Biosciences, Inc,, priority 2001, published 2003) can be followed below.

Assay type in all cases: binding
In test [1] the target is T1, GST-fusion protein of the insulin receptor kinase domain (GST-InsRK) (Homo sapiens, UniProt P06213).
T1 construct: GST-fusion protein of the insulin receptor kinase domain (GST-InsRK)

For test [2], the target named is T2, epidermal growth factor receptor (EGFR) (Homo sapiens, UniProt P00533).
T2 construct: Plasma membranes containing the epidermal growth factor receptor (EGFR) were prepared from the A431 human epidermoid cancer cell line; endogenous in cells; host or cells: A431 human epidermoid cancer cells (plasma membrane preparation, Triton X-100 solubilized)
Nature of the test: EGF receptor tyrosine kinase labeling in A431 plasma membranes, MS identification of labeled peptide. The conditions noted are these: probe 20 μM, 3 hours, solubilized A431 plasma membranes, anti-TAMRA capture, trypsin. The procedure: Plasma membranes containing the epidermal growth factor receptor (EGFR) were prepared from the A431 human epidermoid cancer cell line. Approximately 1×10^8 A431 cells were resuspended in 10 mls 20 mM HEPES, pH 7.5, 0.14M NaCl, 5 mM KCl, 0.1 mM EDTA, 0.1% glucose, and 0.035% sodium bicarbonate. The cells were lysed by Dounce homogenization, and the lysate was diluted into 80 mls of 20 mM sodium borate, pH 10.2, 0.1 mM EDTA. This mixture was placed on a rocker at 4° C. for 10 minutes, and the membranes from the mixture were isolated by centrifugation at 16,000 rpm for 30 minutes in a Beckman JA17 rotor. The plasma membranes were further purified by centrifugation over a 40%/30% sucrose cushion at 30000 rpm for 60 minutes in a Beckman MLS 50 swinging bucket rotor. The plasma membranes were collected at the aqueous—sucrose interface, and solubilized in buffer containing 20 mM HEPES, pH 7.5, 50 mM NaCl, 20 mM MgCl2, 0.05 mg/ml BSA, and 0.1% Triton-X-100.
Solubilized A431 plasma membranes (˜0.5 mg total protein) were incubated with (5)(20 μM) for 3 hours. […]
The proteins in this band were trypsinized, and the tryptic peptides were extracted. […] After elution from the beads the captured fragment was analyzed by mass spectroscopy (MS) to identify the peptide sequence: […]

Test [3] addresses EGF receptor tyrosine kinase (Homo sapiens, UniProt P00533). The test is described as follows: Effect of inhibitors on EGF receptor tyrosine kinase labeling by ANBP (5) in A431 plasma membranes. The following applies: inhibitor 50 μM, 5 minutes pretreatment, then AX0231 20 μM for 60 minutes; compared with 90% by the EGF inhibitor at 5 μM.
Protocol: After 60 minutes, the reaction was quenched by the addition of gel sample buffer. The samples were electrophoresed on a 10% SDS-PAGE gel. The gel was then scanned on a FMBIO2 gel scanner, and the intensity of labeling of the EGFR was quantitated by ImageAnalysis.

T1 sequence (P06213 1023-1298 limits assumed): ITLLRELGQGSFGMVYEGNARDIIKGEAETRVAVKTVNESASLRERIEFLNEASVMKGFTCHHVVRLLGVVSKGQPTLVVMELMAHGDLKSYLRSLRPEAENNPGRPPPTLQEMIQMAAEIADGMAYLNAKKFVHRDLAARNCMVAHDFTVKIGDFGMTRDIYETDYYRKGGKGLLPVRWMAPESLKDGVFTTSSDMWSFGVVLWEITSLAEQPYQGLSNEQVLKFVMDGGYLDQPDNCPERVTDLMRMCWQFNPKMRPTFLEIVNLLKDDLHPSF

On to “5′-FSB-amido-2′(3′)-(2-TAMRA-amidoethylcarbamoyl)adenosine [Compound 5]”, for which the “labeling of GST-InsRK by probe” value in test [1] is on record as “labeled”. The “site of labeling in EGFR (probe-labeled tryptic peptide, K*)” value in test [2] is “located within the active site of the protein”. Regarding `COC(=O)c1ccc(NCc2cc(O)ccc2O)cc1` [AG957], the “inhibition of probe labeling of EGFR” value in test [3] is reported as “significantly less inhibition”.
